The values below come from patent publication US7632783B2 (priority 2004, dated 2009).

Assay [1] deals with gray mold (Botrytis cinerea). The assay is described as follows: Tomato gray mold control test (preventive effects). Type of assay: in vivo. Particulars: potted tomato (giant Fukuju variety), spraying liquid 300 ppm before spore inoculation, investigated 2 days after inoculation, levels 0 to 3. As for the experimental part:
Bulk drug was dissolved in a mixed solution of dimethylsulfoxide and methanol (volume ratio: 7/3), and spraying liquids containing 300 ppm of compounds of the present invention were uniformly sprayed onto potted test plants (tomato: giant Fukuju variety) in the second to third leaf stage. […], a suspension of pathogen spores were inoculated by spraying onto the pots in an inoculation room at a room temperature of 20 to 23° C. to promote the onset of disease. The degree of disease onset was investigated 2 days after inoculation. The test was carried out in duplicate.
Furthermore, the degree of disease onset was evaluated to one of four levels from 0 to 3 according to the criteria below by macroscopically observing the degree of disease onset of the test plants.
1: Degree of disease onset less than 40% of the untreated area
2: Degree of disease onset 40% to less than 80% of the untreated area
3: Degree of disease onset 80% or more

Assay [2] has as its system rice blast (Pyricularia oryzae). The format is in vivo. Particulars: potted rice (variety Karakaze), spraying liquid 300 ppm after spore inoculation, observed 7 days after inoculation, levels 0 to 3.

In the case of “3-(5-fluoro-3,3-dimethyl-3,4-dihydroisoquinolin-1-yl)quinoline salicylate [Example 108]”, the “degree of disease onset” value in assay [1] and in assay [2] was 0 throughout. For the molecule `CC1(C)Cc2c(F)cccc2C(c2cnc3ccccc3c2)=N1` [Example 2, 3-(5-fluoro-3,3-dimethyl-3,4-dihydroisoquinolin-1-yl)quinoline], the “degree of disease onset” value in assay [1] and in assay [2] was 0 in each case. As for `Cc1cccc2cc(C3=NC(C)(C)Cc4c(F)cccc43)cnc12` [Example 14, 3-(5-fluoro-3,3-dimethyl-3,4-dihydroisoquinolin-1-yl)-8-methylquinoline], the “degree of disease onset” value in assay [1] and in assay [2] was 0 each time. Consider `CC1(C)Cc2c(Cl)cccc2C(c2cnc3ccccc3c2)=N1` [Example 18, 3-(5-chloro-3,3-dimethyl-3,4-dihydroisoquinolin-1-yl)quinoline], for which the “degree of disease onset” value in assay [1] and in assay [2] was 0 throughout. Turning to `CC1(C)Cc2ccc(Cl)cc2C(c2cnc3ccccc3c2)=N1` [Example 21, 3-(7-chloro-3,3-dimethyl-3,4-dihydroisoquinolin-1-yl)quinoline], the “degree of disease onset” value in assay [1] and in assay [2] was 0 throughout. Regarding `CC1(C)Cc2c(Br)cccc2C(c2cnc3ccccc3c2)=N1` [Example 22, 3-(5-bromo-3,3-dimethyl-3,4-dihydroisoquinolin-1-yl)quinoline], the “degree of disease onset” value in assay [1] and in assay [2] was 0 throughout. `C#Cc1cccc2c1CC(C)(C)N=C2c1cnc2ccccc2c1` [Example 30, 3-(5-ethynyl-3,3-dimethyl-3,4-dihydroisoquinolin-1-yl)quinoline]: the “degree of disease onset” value in assay [1] and in assay [2] was 0 each time.

Take `CC1(C)Cc2c(C#N)cccc2C(c2cnc3ccccc3c2)=N1` [Example 51, 3-(5-cyano-3,3-dimethyl-3,4-dihydroisoquinolin-1-yl)quinoline]: the “degree of disease onset” value in assay [1] and in assay [2] was 0 throughout. Consider `CC1(C)Cc2c(ccc(F)c2F)C(c2cnc3ccccc3c2)=N1` [Example 52, 3-(5,6-difluoro-3,3-dimethyl-3,4-dihydroisoquinolin-1-yl)quinoline], for which the “degree of disease onset” value in assay [1] and in assay [2] was 0 each time. Turning to `CCC1(C)Cc2c(F)cccc2C(c2cnc3ccccc3c2)=N1` (centres unmarked) [Example 56, 3-(3-ethyl-5-fluoro-3-methyl-3,4-dihydroisoquinolin-1-yl)quinoline], the “degree of disease onset” value in assay [1] and in assay [2] was 0 throughout. On to `CCCC1(C)Cc2c(F)cccc2C(c2cnc3ccccc3c2)=N1` (centres unmarked) [Example 58, 3-(5-fluoro-3-methyl-3-propyl-3,4-dihydroisoquinolin-1-yl)quinoline], for which the “degree of disease onset” value in assay [1] and in assay [2] was 0 throughout. Regarding `CC1(CCl)Cc2ccccc2C(c2cnc3ccccc3c2)=N1` (centres unmarked) [Example 66, 3-(3-chloromethyl-3-methyl-3,4-dihydroisoquinolin-1-yl)quinoline], the “degree of disease onset” value in assay [1] and in assay [2] was 0 throughout.

For the molecule `CC1(C(F)(F)F)Cc2ccccc2C(c2cnc3ccccc3c2)=N1` (centres unmarked) [Example 68, 3-(3-trifluoromethyl-3-methyl-3,4-dihydroisoquinolin-1-yl)quinoline], the “degree of disease onset” value in assay [1] and in assay [2] was 0 throughout. On to `CC1(CC(F)(F)F)Cc2ccccc2C(c2cnc3ccccc3c2)=N1` (centres unmarked) [Example 69, 3-(3-trifluoroethyl-3-methyl-3,4-dihydroisoquinolin-1-yl)quinoline], for which the “degree of disease onset” value in assay [1] and in assay [2] was 0 throughout. As for `CC1(c2ccccc2)Cc2ccccc2C(c2cnc3ccccc3c2)=N1` (centres unmarked) [Example 71, 3-(3-methyl-3-phenyl-3,4-dihydroisoquinolin-1-yl)quinoline], the “degree of disease onset” value in assay [1] and in assay [2] was 0 each time.

For `CC1(c2ccc(F)cc2)Cc2ccccc2C(c2cnc3ccccc3c2)=N1` (centres unmarked) [Example 72, 3-[3-(4-fluorophenyl)-3-methyl-3,4-dihydroisoquinolin-1-yl]quinoline], the “degree of disease onset” value in assay [1] and in assay [2] was 0 each time. Consider `CC1(c2ccc(Cl)cc2)Cc2ccccc2C(c2cnc3ccccc3c2)=N1` (centres unmarked) [Example 73, 3-[3-(4-chlorophenyl)-3-methyl-3,4-dihydroisoquinolin-1-yl]quinoline], for which the “degree of disease onset” value in assay [1] and in assay [2] was 0 in each case. As to `Fc1ccc(C2(CCl)Cc3ccccc3C(c3cnc4ccccc4c3)=N2)cc1` (centres unmarked) [Example 75, 3-[3-chloromethyl-3-(4-fluorophenyl)-3,4-dihydroisoquinolin-1-yl]quinoline], the “degree of disease onset” value in assay [1] and in assay [2] was 0 in each case. `CC1(Cc2ccccc2)Cc2ccccc2C(c2cnc3ccccc3c2)=N1` (centres unmarked) [Example 79, 3-(3-Benzyl-3-methyl-3,4-dihydroisoquinolin-1-yl)quinoline]: the “degree of disease onset” value in assay [1] and in assay [2] was 0 throughout. Consider `CC1(C)Cc2c(F)cccc2C(c2cnc3ccccc3c2)=N1.Cl` [Example 103, 3-(5-fluoro-3,3-dimethyl-3,4-dihydroisoquinolin-1-yl)quinoline hydrochloride], for which the “degree of disease onset” value in assay [1] and in assay [2] was 0 each time. As for `CC1(C)Cc2c(F)cccc2C(c2cnc3ccccc3c2)=N1.CS(=O)(=O)O` [Example 107, 3-(5-fluoro-3,3-dimethyl-3,4-dihydroisoquinolin-1-yl)quinoline methanesulfonate], the “degree of disease onset” value in assay [1] and in assay [2] was 0 throughout.

As for `CC1(C)Cc2c(F)cccc2C(c2cnc3ccccc3c2)=N1.O=C(O)/C=C/C(=O)O` [Example 109, 3-(5-fluoro-3,3-dimethyl-3,4-dihydroisoquinolin-1-yl)quinoline fumarate], the “degree of disease onset” value in assay [1] and in assay [2] was 0 in each case.

As for `CC1(C)N=C(c2cnc3ccccc3c2)c2cccc(F)c2C1(C)C` [Example 114, 3-(5-fluoro-3,3,4,4-tetramethyl-3,4-dihydroisoquinolin-1-yl)quinoline], the “degree of disease onset” value in assay [1] and in assay [2] was 0 throughout.

Consider `CC1c2c(Cl)cccc2C(c2cnc3ccccc3c2)=NC1(C)C` (centres unmarked) [Example 121, 3-(5-chloro-3,3,4-trimethyl-3,4-dihydroisoquinolin-1-yl)quinoline], for which the “degree of disease onset” value in assay [1] was 0.

For the molecule `CC1(C)N=C(c2cnc3ccccc3c2)c2cccc(Cl)c2C1(C)C` [Example 123, 3-(5-chloro-3,3,4,4-tetramethyl-3,4-dihydroisoquinolin-1-yl)quinoline], in assay [1], the “degree of disease onset” value is 0. On the same count and under the same terms, then `CC1(C)N=C(c2cnc3ccccc3c2)c2ccc(Cl)cc2C1(C)C` [Example 154, 3-(6-chloro-3,3,4,4-tetramethyl-3,4-dihydroisoquinolin-1-yl)quinoline], with 0. On to `CC1(C)N=C(c2cnc3ccccc3c2)c2cccc(F)c2C1(C)C.Cl` [Example 156, 3-(5-fluoro-3,3,4,4-tetramethyl-3,4-dihydroisoquinolin-1-yl)quinoline hydrochloride], for which the “degree of disease onset” value in assay [1] and in assay [2] was 0 in each case. Regarding `CC1(C)N=C(c2cnc3ccccc3c2)c2cccc(F)c2C1(C)C.O=[N+]([O-])O` [Example 158, 3-(5-fluoro-3,3,4,4-tetramethyl-3,4-dihydroisoquinolin-1-yl)quinoline nitrate], the “degree of disease onset” value in assay [1] and in assay [2] was 0 throughout.

With `CC1(C)N=C(c2cnc3ccccc3c2)c2cccc(F)c2C1(C)C.CS(=O)(=O)O` [Example 159, 3-(5-fluoro-3,3,4,4-tetramethyl-3,4-dihydroisoquinolin-1-yl)quinoline methanesulfonate], in assay [1], the “degree of disease onset” value stood at 0. As to `CC1(C)N=C(c2cnc3ccc(F)cc3c2)c2cccc(F)c2C1(C)C` [Example 163, 3-(5-fluoro-3,3,4,4-tetramethyl-3,4-dihydroisoquinolin-1-yl)-6-fluoroquinoline], the “degree of disease onset” value in assay [1] and in assay [2] was 0 in each case. For `CC1(C)N=C(c2cnc3c(F)cccc3c2)c2cccc(F)c2C1(C)C` [Example 164, 3-(5-fluoro-3,3,4,4-tetramethyl-3,4-dihydroisoquinolin-1-yl)-8-fluoroquinoline], the “degree of disease onset” value in assay [1] and in assay [2] was 0 each time.

As for `Cc1cccc2cc(C3=NC(C)(C)C(C)(C)c4c(F)cccc43)cnc12` [Example 165, 3-(5-fluoro-3,3,4,4-tetramethyl-3,4-dihydroisoquinolin-1-yl)-8-methylquinoline], the “degree of disease onset” value in assay [1] and in assay [2] was 0 throughout. Take `C=C1c2c(F)cccc2C(c2cnc3ccccc3c2)=NC1(C)C` [Example 175, 3-(5-fluoro-3,3-dimethyl-4-methylene-3,4-dihydroisoquinolin-1-yl)quinoline]: the “degree of disease onset” value in assay [1] is on record as 0.

Turning to `CN1C(c2cnc3ccccc3c2)c2cccc(F)c2C(C)(C)C1(C)C` (centres unmarked) [Example 191, 3-(5-fluoro-2,3,3,4,4-pentamethyl-1,2,3,4-tetrahydroisoquinoline-1-yl)quinoline], the “degree of disease onset” value in assay [1] is 0.
